We go through one compound from patent US20220132839A1, “MOSQUITO ATTRACTANT COMPOSITIONS” (UNIVERSITY OF WASHINGTON, priority 2019, published 2022).

SMILES strings stand for the structures. “Also recorded” adds a separate entry of the source.

The subject of the experiment is Ae. aegypti AL glomeruli. Kind of experiment: Two-photon calcium imaging (PUb-GCaMP6s) of the antennal lobe, Ae. aegypti. The experiment is classed as in vivo. From the text:
A total of twenty preparations were used: 10 for single odorant and orchid mixture experiments; 6 for ratio experiments; and 4 for experiments using GABA-receptor antagonists. […] The expression of GCaMP occurred in glia, local interneurons, and projection neurons. […] Thus, in the calcium imaging experiments care was taken to image from the central regions of the glomeruli and avoid the sheaths and external glomerular loci. […] Relatedly, GCaMP6s expression is very high in AL local interneurons and projection neurons (PNs), such that during odor stimulation the PNs and axonal processes can often be imaged, and 3D reconstructions can be take place through simultaneous optical sections with odor stimulation. Nonetheless, the glomerular responses were assumed to be a function of multiple cell types.
Similar to experiments with Ae. increpitus, the majority the mosquitoes were UV-glued to the stage to allow free movement of their wings and proboscis; however, for experiments using GABA-receptor antagonists the proboscis was glued to the stage for additional stability. Once the mosquito was fixed to the stage, a window in its head was cut to expose the brain, and the brain was continuously superfused with physiological saline.
Thus a provisional atlas was created with female mosquitoes (n=6) that allowed for cross-reference of the imaged glomeruli and comparison of their positions and structures to those described in the atlas. This was accomplished via clear glomerular boundaries, especially during odor stimulation, and the distinct odorant tuning of glomeruli throughout the depths of the AL (e.g., AM2 responsive to DEET; LC2 and AL3 responsive to nonanal; PD3 responsive to geosmin; and MD2 responsive to CO2) that allowed 3D registration across preparations and subsequent warping and referencing with the atlas.
Saline and pharmacological agents. The saline was made based on the Beyenbach and Masia recipe (L. B. Thien, F. Utech, The mode of pollination in Habenaria obtusata (Orchidaceae). American Journal of Botany 57, 1031-1035 (1970)) and contained 150.0 mM NaCl, 25.0 mM N-2-hydroxyethyl-piperazine-N′-2-ethanesulfonic acid (HEPES), 5.0 mM sucrose, 3.4 mM KCl, 1.8 mM NaHCO3, 1.7 mM CaCl2, and 1.0 mM MgCl2. The pH was adjusted to 7 with 1 M NaOH. […] […] A drip system comprising two 100 mL reservoirs—one containing the GABA receptor antagonists, and the other saline—converged on the two-channel temperature controller to facilitate rapid switching from normal physiological saline solution to the antagonists and back. Antagonists were superfused directly into the holder near to the opening of the head capsule and recorded neuropil. The odor-evoked responses were first recorded under normal physiological saline solution and then repeated under GABA receptor antagonists diluted in normal saline solution, and finally the normal saline wash. All calcium imaging data were statistically analyzed using Kruskal-Wallis tests with multiple comparisons and visualized using Principal Components Analysis. Analyses were performed in Matlab (v2017; Mathworks, Natick, Mass.).
Olfactory stimuli were delivered to the mosquito by pulses of air diverted through a 2 mL cartridge containing a piece of filter paper bearing the odor stimulus (2 An air line provided gentle and constant charcoal-filtered air at 1 m/s to the antennae allowing continuous ventilation to prevent adaptation of the olfactory receptor cells. The stimulus output was positioned in the air line 2 cm from and orthogonal to the mosquito antennae. For testing different ratios of lilac aldehyde and nonanal, two syringes bearing different concentrations of the odorants were used and positioned such that the outputs were positioned in the same location in the air stream. […]

Setting [1] is: lilac aldehyde and nonanal at different concentration ratios.

For `CCCCCCCCC=O` [nonanal], under “imaged at 40 μm depth, particularly AL3 and LC2 glomeruli for the mixture”, the “glomerular responses in the AL” value is recorded as “strong responses”. In addition, under setting [1], the “AM2 response to lilac aldehyde/nonanal mixtures” value is “caused suppression of AM2 responses to lilac aldehyde” and the “LC2 response to lilac aldehyde/nonanal mixtures” value is “increasing the activation of LC2”. For the same compound, the AM2 glomerulus response result (odor stimulation) is reported as “often exhibited inhibition”. The AL3 glomerulus response result (odorant tuning used for glomerular registration) is recorded as “responsive”. Moreover, for the setting “single odorants”, the LC2 glomerulus response entry is “responsive; also recorded: strongest response”.
